The results in this text go back to patent US8822198B2, “Method for optimizing a biopharmaceutical production process” (priority 2009, dated 2014).

“Also recorded” adds a separate entry of the source.

Series [1] concerns CHO. Nature of the series: Shake flask experiment, buffer screen (Example 2). Format: cell-based, Chinese Hamster. The conditions noted are these: shake flasks; for cell growth / buffer performance: 11 d, incubator 1. As for the experimental part:
The selection of the buffer systems (cell-free) is now operated with cells. The criterion for the choice of the buffer systems used in this experiment is an acceptable osmolality and good buffer characteristics during the introduction of gas into the shake flask incubator. […] The objective is to determine the best buffer medium, in relation to the growth performance of the cell, as a basis for a subsequent fermentation in the bioreactor. The preparation is carried out analytically as precisely as possible. The pH values are adjusted by BGA comparison. Lower buffer concentrations are added by means of stock solutions. After manufacture, sterile filtration is carried out. As a safety measure the experiments are carried out with n=2. To achieve two different gas supply variants, the experiments are split between two different incubators. A summary can be found in the experiment plan. […] The analysis on d0 (day 0) was carried out immediately after the seeding under the LAF box, i.e. without any previous effect of the CO2 atmosphere of the incubator.

The test system of series [2] is CHO. Nature of the series: Fermentation verification buffer system (Example 4). Format: cell-based, Chinese Hamster. The conditions noted are these: CO2-regulated bioreactors, NaHCO3 0-16 mM, FIG. 6. An excerpt:
In six CO2-regulated bioreactors the buffer systems TES and Sod-β are used with different concentrations of NaHCO3, in order to determine the optimum concentration of NaHCO3 in the medium. […] Medium B, NaHCO3-free, MOPS-free+weighed amount/stock solution buffer substance(s) • Feeding: […] NaOH (1.2M) (no CO2) • pCO2: day 0-3 5%, day 3-11 3% The buffer systems used with different concentrations of NaHCO3 are shown in Table 6. [table]

In series [3] the test system is CHO. The conditions noted are these: acid added on day 3, FIG. 9B. The protocol:
Different acids are added to three CO2-regulated bioreactors for a pH shift from 6.95 to 6.8 on day 3. The concentrations of the acid solutions are chosen such that the quantities of substance required, which have been determined beforehand in a titration, are present in 50 ml of solution.
The test set-up is described below: • Platform: Bioreactor/Multifermenter • Method: Fed Batch • Cell: CHO • Seeding density: 3×10^5 vc/mL • Start volume: 1.8 L • Run time: 11 days • Medium: Medium B, NaHCO3-free, MOPS-free+Sod-β (25 mM) • Feeding: Feed I continuously from day 2 • Temperature: 37° C. • pO2: 60% • Speed: 160 rpm • pH: day 0-3 7.00±0.05, day 3-11 6.80±0.05 • pH regulation: NaOH (1.2M) (no CO2)

The test system of series [4] is CHO. Kind of series: Bioreactor fermentation, pCO2 regulated/unregulated and buffer systems (Example 3). The series is classed as cell-based, Chinese Hamster. As for the experimental part:
The fermentation using the multifermenter is again preceded by an optimising test using SDR. In this preliminary test, in accordance with Example 1, different NaHCO3 concentrations are tested in conjunction with the media Sod-β/H and TES/K. In the experiment, in addition to the evaluation by the drop in pO2, an identically covered well plate is used having pH sensors. […] (The data from the preliminary test are not shown here.) Fermentation takes place in two multifermenters (corresponding to twelve individual fermenters) with different media combinations. The procedure and handling are based on the sections described under the headings Equipment, Methods and Operating steps. [table] The CO2 profile shown above applies to the regulated bioreactor FS 33.1. in the remaining fermenters, after the seeding (d0), for a specific length of time at a specific control magnitude, CO2(gas) is added in order to provide the cells with a minimum of dissolved CO2. […] In the context of determining cell density it was jointly decided that no further manual interventions are required for supplying CO2 gas. [table]

Series [5] relates to CHO. To be noted: Na salt added on day 3, FIG. 8. As for the experimental part: In 10 250 ml shake flasks, cells are tested for their acid tolerance with the addition of sodium salts. The salt solutions are selected such that the quantities of acids determined by titration beforehand are present in 1.5 ml of solution for a pH shift from 7.1 to 6.7. On day 3 these 1.5 ml of the different salt solutions are added to the shake flasks to simulate a pH shift.

Consider `O.O.O.O.O.O=P([O-])([O-])OC(CO)CO.[Na+].[Na+]` [Sod-β, sodium-β-glycerophosphate-pentahydrate], for which the “cell growth / buffer performance” value in the series on CHO [1] is on record as “best buffer substances”. Moreover, in the series with CHO [2], the “standardised product concentration with different NaHCO3 concentrations” value is listed as “not dependent on the amount of NaHCO3 in the medium; also recorded: productivity of the cells is independent of the concentration of NaHCO3”. For the compound `O=P(O)(O)O` [phosphoric acid], in the series on CHO [3], the standardised product concentration result is recorded as “same product concentrations”. Still for that read-out and setting: with `Cl` [hydrochloric acid] the entry was “same product concentrations”.

`NC(CO)(CO)CO` [Trizma base]: in the series on CHO [1], the “cell growth / buffer performance” value is listed as “runs poorly”. Further, the toxicity entry with CHO [1] (any concentration, pH stable) is on record as “may be some toxicity”. For `O=S(=O)(O)CCNC(CO)(CO)CO` [TES, N-tris(hydroxymethyl)methyl-2-aminoethanesulphonic acid], the “cell growth / buffer performance” value with CHO [1] is “best buffer substances”. Besides, the “titre concentration compared with the control” value in the series with CHO [4] (FIG. 5C, control NaHCO3 36 mmol/L) is “at the same level as those of the control”. The “standardised product concentration with different NaHCO3 concentrations” value in the series with CHO [2] is “same product concentrations both with and without the use of NaHCO3; also recorded: identical product concentrations”. For `CC(=O)[O-].[Na+]` [sodium acetate], in the series with CHO [5], the “toxic effect on cell growth” value is “toxic effect”. Consider `O=S(=O)(O)O` [sulphuric acid], for which the standardised product concentration result with CHO [3] is “same product concentrations”. In the case of `[Na+].[OH-]` [NaOH, sodium hydroxide solution], the “product formation rate by pH regulation agent” value in the series on CHO [4] (NaOH versus Na2CO3, FIG. 4) is listed as “better product formation rate”.
